Measured values: paper PMC4593646, “The Cyclooctadepsipeptide Anthelmintic Emodepside Differentially Modulates Nematode, Insect and Human Calcium-Activated Potassium (SLO) Channel Alpha Subunits” (PLoS Neglected Tropical Diseases, 2015)

Tests used:
Drosophila Slo (Dm Slo) = biological target: T1, Drosophila Slo (Dm Slo) (Drosophila melanogaster, UniProt Q03720); assay: whole cell voltage clamp, CHO cells stably expressing Dm Slo, dose-response; assay type: cell-based
T1 construct: alpha subunit, stably expressed in CHO cells
T1 sequence (Q03720 whole entry): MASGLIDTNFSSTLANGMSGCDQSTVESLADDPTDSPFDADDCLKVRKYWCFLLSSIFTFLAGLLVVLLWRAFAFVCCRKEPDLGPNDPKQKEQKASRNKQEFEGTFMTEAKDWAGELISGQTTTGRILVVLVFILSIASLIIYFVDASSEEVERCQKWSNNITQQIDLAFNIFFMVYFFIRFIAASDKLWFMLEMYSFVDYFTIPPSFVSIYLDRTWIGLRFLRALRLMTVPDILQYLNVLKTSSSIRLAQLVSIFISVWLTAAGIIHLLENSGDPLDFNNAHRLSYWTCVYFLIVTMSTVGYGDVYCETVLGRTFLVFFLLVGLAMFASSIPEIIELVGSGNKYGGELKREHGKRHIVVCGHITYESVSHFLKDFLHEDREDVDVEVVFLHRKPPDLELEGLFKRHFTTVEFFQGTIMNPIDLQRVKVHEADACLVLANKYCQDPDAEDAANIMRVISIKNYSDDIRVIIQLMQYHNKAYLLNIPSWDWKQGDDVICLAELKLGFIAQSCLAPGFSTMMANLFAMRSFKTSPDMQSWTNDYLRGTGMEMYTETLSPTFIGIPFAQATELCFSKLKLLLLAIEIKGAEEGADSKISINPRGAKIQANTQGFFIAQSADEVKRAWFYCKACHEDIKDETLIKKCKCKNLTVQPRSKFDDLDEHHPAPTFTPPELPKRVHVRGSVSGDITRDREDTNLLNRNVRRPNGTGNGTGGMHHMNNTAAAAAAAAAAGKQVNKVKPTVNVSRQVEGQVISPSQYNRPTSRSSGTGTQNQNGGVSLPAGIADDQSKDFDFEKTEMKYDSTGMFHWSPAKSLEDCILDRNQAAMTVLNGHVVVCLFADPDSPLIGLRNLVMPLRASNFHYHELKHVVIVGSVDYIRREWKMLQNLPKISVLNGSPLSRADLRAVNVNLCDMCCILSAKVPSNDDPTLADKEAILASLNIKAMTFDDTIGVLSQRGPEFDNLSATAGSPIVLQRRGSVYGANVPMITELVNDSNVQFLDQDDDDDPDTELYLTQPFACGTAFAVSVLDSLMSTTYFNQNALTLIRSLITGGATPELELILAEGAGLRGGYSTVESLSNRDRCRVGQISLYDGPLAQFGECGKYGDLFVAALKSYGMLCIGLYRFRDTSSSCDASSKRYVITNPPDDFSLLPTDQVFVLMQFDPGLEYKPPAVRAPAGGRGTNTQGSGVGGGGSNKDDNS

[1] = biological target: T2, human KCNMA1 (hum KCNMA1) (Homo sapiens, UniProt Q12791); assay: whole cell patch clamp, transfected HEK293 cells; transient facilitation then inhibition at […]; assay type: cell-based
T2 construct: KCNMA1 variant 2/isoform b (NP_002238), expressed in HEK293 cells
T2 sequence (Q12791 whole entry, canonical isoform): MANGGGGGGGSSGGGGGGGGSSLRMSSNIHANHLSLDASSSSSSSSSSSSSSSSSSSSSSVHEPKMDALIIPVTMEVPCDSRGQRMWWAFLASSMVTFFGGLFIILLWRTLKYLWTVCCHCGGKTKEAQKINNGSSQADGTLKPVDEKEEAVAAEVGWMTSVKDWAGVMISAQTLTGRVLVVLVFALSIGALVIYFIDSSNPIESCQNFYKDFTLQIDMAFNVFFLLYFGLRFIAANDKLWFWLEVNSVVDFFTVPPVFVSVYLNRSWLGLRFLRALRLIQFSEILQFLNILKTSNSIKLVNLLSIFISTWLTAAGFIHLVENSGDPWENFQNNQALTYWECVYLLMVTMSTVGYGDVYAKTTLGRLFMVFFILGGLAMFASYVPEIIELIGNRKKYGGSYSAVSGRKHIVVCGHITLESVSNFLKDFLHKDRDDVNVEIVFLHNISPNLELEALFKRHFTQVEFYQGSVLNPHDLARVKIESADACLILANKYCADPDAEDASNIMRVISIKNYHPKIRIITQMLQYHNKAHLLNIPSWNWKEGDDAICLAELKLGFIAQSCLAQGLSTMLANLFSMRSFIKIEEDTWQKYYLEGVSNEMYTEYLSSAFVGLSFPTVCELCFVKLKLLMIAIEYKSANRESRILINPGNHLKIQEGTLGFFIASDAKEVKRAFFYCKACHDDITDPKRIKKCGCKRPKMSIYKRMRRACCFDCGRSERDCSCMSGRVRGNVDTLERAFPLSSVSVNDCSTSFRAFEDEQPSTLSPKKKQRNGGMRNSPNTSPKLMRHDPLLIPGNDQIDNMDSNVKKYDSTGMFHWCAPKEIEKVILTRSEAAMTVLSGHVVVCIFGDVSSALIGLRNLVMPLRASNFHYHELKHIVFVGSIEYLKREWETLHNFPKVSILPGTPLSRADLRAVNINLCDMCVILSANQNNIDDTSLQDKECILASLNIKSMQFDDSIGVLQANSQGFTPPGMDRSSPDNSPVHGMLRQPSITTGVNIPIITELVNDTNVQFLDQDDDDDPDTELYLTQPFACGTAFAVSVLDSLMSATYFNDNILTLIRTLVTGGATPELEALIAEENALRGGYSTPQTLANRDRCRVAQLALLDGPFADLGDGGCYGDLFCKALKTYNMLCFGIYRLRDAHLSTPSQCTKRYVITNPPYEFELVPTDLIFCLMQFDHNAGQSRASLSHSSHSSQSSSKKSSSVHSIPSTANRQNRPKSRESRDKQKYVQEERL

SMILES	IC50 (Drosophila Slo (Dm Slo))	whole cell patch clamp, transfected HEK293 cells; transient facilitation then in [1]
C=C(C)[C@H]1O[C@H]2CC[C@@]3(C)[C@@](O)(CC[C@H]4[C@@H]5OC(C)(C)[C@H]6C[C@@H]7C(=C)Cc8c(Cl)cc9[nH]c(c5c9c8[C@@]76O)[C@@]43C)[C@@]23O[C@H]3[C@H]1O [penitrem A]	0.5 nM	
CC(C)C[C@H]1C(=O)O[C@H](Cc2ccc(N3CCOCC3)cc2)C(=O)N(C)[C@@H](CC(C)C)C(=O)O[C@H](C)C(=O)N(C)[C@@H](CC(C)C)C(=O)O[C@H](Cc2ccc(N3CCOCC3)cc2)C(=O)N(C)[C@@H](CC(C)C)C(=O)O[C@H](C)C(=O)N1C [emodepside]		In HEK293 cells expressing KCNMA1 emodepside elicited a biphasic, concentration-dependent effect on current amplitude
COc1ccc2c3c4n(c2c1)[C@H](C=C(C)C)OOC(C)(C)C[C@@H]4N1C(=O)[C@@H]2CCCN2C(=O)[C@]1(O)[C@H]3O [verruculogen]	6.2 nM	
